Assay results as given in patent EP2657347A1, “Electrochemical competitive assay and use thereof” (Université Paris Diderot - Paris 7, priority 2012, dated 2013).
pKd: −log10 of the molar value. Like-named read-outs stand apart in the source and are kept apart here.

Key:
[1] = target: anti-L-tyrosinamide aptamer; details: previously determined by fluorescence polarization; cited from earlier work
[2] = target: anti-L-tyrosinamide aptamer; details: previously determined by isothermal titration calorimetry; cited from earlier work
D-Apt49 = assay: Homogeneous electrochemical competitive binding assay in 20% fetal bovine serum
Procedure: • Figure 1: Electrochemically competitive assay of the invention. Left-hand column: before the addition of the sample: a first redox signal is measured. Right-hand column: after the addition of a sample containing the target to be detected or measured: a second redox signal is measured. (A) Homogeneous electrochemically competitive assay: the presence of the target disrupts the complex formed between the oligonucleotide ligand and the redox-labeled target. […] (B) Heterologous electrochemically competitive assay, wherein the oligonucleotide ligand is attached to a solid phase: the presence of the target disrupts the complex formed between the oligonucleotide ligand and the redox-labeled target, thereby inducing a better detection of the redox labeled-target. […] (C) Heterologous electrochemically competitive assay, wherein the oligonucleotide ligand is attached to the electrode: the presence of the target disrupts the complex formed between the oligonucleotide ligand and the redox-labeled target, thereby reducing the detection of the redox labeled-target. […] (f) CV of 1 µM [Os(bpy)3]^2+ alone. […] Error bars: standard deviations from 3 measurements. Plain lines: fits of eq 5 to the experimental data. • Figure 3: (A) CVs (v = 0.05 V s^-1) of 5 mM Tris buffer (pH 7.0) containing 50 mM NaCl, 10 mM Mg^2+, 5 µM Fc-L-Tym and (a) 0 µM, (b) 1 µM, (c) 2 µM, (d) 3 µM, (e) 4 µM (f) 5 µM (g) 7.5 µM (h) 10 µM (i) 12.5 µM and (j) 15 µM of D-Apt49. (B) Normalized anodic peak current response as a function of aptamer concentration. Each data is the average of 3 measurements. Error bars are standard deviations. Plain line: fit of eq 5 to the experimental data. • Figure 4: Competitive binding curves performed in (A) 5 mM Tris buffer (pH 7 + 50 mM NaCl + 10 mM MgCl2) or (B) 20% fetal bovine serum (simply diluted with a 4 mM MgCl2 aqueous solution) as a function of (●, ★, ▼, Δ) L-Tym or (○) D-Tym concentration. (*) Assay of 5 µM L-Tym in the presence of 5 mM D-Tym. The Fc-L-Tym concentration was always C^0T*= 5 µM, whereas the D-Apt49 concentrations were C^0R: (●) 3, (★,○,*) 10, (▼) 40 and (Δ) 100 µM.
The enantiospecificity of the assay was next characterized using the same methodology but for solutions containing the D-Tym enantiomer. […] To evaluate the enantiospecific performance of the aptamer, the assay of trace amount of L-Tym in the presence of a large excess of D-Tym was examined and, as reported in Figure 4A, it has been found possible to detect as low as 5 µM L-Tym in the presence of 5 mM D-Tym. This remarkable performance means that as low as 0.1 % of an enantiomeric impurity in a nonracemic mixture can be assayed in a very short analysis time (<1 min). This is competitive with conventional separation techniques, and one order of magnitude lower than the 1% currently attainable by NMR. Finally, the ability to perform an assay under realistic biological conditions was examined. For such purpose, homogenous electrochemical competitive binding assays of 5-fold diluted fetal bovin serum samples spiked with known amounts of […] were then performed (Figure 4B).

Compound: NC(=O)[C@@H](N)Cc1ccc(O)cc1 [L-Tym, L-tyrosinamide]
- pKd [1]: 5.66 to 5.77
- pKd [2]: 5.49 to 5.76
- pKd (D-Apt49; 5-fold diluted fetal bovine serum, average of the fitted curves, read-out: Kd (average value)): 5.00
- pKd (D-Apt49; 20% fetal bovine serum, 5 µM Fc-L-Tym, 40 µM D-Apt49, read-out: Kd): 5.05
- pKd (D-Apt49; 20% fetal bovine serum, 5 µM Fc-L-Tym, 100 µM D-Apt49, read-out: Kd): 4.96
